From patent US11667645B2, “Granzyme B directed imaging and therapy” (CytoSite Biopharma Inc., priority 2018, dated 2023) come the findings set out here.

pIC50: −log10 of the molar value.

Granzyme B (human lymphocytes), sequence (P10144 21-247): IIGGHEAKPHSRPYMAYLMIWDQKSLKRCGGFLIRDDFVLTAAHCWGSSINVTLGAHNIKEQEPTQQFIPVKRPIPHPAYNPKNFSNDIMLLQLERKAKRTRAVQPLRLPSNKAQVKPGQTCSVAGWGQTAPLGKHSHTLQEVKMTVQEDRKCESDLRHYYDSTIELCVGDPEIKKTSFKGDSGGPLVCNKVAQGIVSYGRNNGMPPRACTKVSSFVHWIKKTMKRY

The experiment has as its target Granzyme B (human lymphocytes) (Homo sapiens (Human), UniProt P10144). Description: human Granzyme B biochemical assay. The conditions noted are these: Granzyme B (human lymphocytes) 5 nM, substrate Ac-IETD-AFC 200 μM, Cpd incubation with enzyme 30 mins, 22° C., read time 60 mins; read-out: IC50. The text has this: The compounds of Formula I-VIII described above can be tested using the human Granzyme B biochemical assay provided below.
Materials: • 1. Granzyme B (human lymphocytes) Enzyme: Enzo Lifesciences, Cat #ALX-200-602-0010 • 2. Substrate (Ac-IETD-AFC): Enzo Lifesciences, Cat #ALX-260-110-M010 • 3. Standard inhibitor (Compound 20-Isomer3): Synthesized internally in TCG • 4. Dimethyl sulfoxide (DMSO): Sigma-Aldrich, Cat #41639 • 5. HEPES: Gibco, Cat #15630-080 • 6. Calcium chloride: Sigma-Aldrich, Cat #C-5080 • 7. Distilled water: Gibco, Cat #15230-162 • 8. Bovine serum albumin (BSA): Sigma-Aldrich, Cat #A3059 • 9. Black, clear bottom PDL plate (384 wells): Greiner bio-one, Cat #781946 • 10. Polypropylene plate (384 wells): Corning, Cat #3657 Assay Buffer Composition:
Compound Preparation: • 1. DMSO is added to the respective compound vial to make 10 mM Compound stock solution, which is stored at −20° C. • 2. 10 mM Compound stock solution is thawed and 1 mM DMSO stock solution is prepared by adding 45 μl of DMSO to 5 μl of 10 mM compound stock solution. • 3. 1 mM DMSO stock solution is serially diluted (3.16 fold) by adding 10 μl of 1 mM DMSO stock to 21.6 μl of DMSO and mixed well. 10 μl of the resulting solution is then added to 21.6 μl of DMSO and mixed well. This process is continued to create 11 dilution points for the assay standard inhibitor and 8 dilution points for test compounds in 384 well polypropylene plate. • 4. 2 μl of each dilution are dispensed in assay ready plate. • 5. Each well is then diluted 25 fold by adding 48 μl of assay buffer to 2 μl of compound in assay ready plate to make Compound working stock. Enzyme Preparation: • 1. Supplied Granzyme B (human lymphocytes) enzyme is reconstituted to 1 mg/ml (about 31.25 μM) and 1 μl aliquots are kept in −80° C. • 2. 1 μl aliquot is diluted to 625 nM by adding 49 μl of assay buffer containing 0.1% BSA and gently mixed. • 3. 10 nM enzyme working stock is prepared by adding assay buffer containing 0.1% BSA. Substrate Preparation: • 1. Supplied substrate (Ac-IETD-AFC) is reconstituted by adding DMSO to make 10 mM stock, aliquoted and stored in −80° C. • 2. 4 mM substrate mid stock is prepared by adding DMSO. • 3. Substrate working stock i.e. 800 μM is prepared by adding assay buffer. Assay Protocol: • 1. 10 μl of serially diluted Compound working stock (start dose 40 μM) is added from assay ready plate to assay plate according to the plate map. • 2. Positive control (40 μM of standard inhibitor) and negative control (4% DMSO buffer) are added to the respective wells. • 3. 20 μl of Enzyme working stock is added to assay plate and gently mixed. • 4. The plate is incubated at 22° C. for 30 mins and spun at 130 g for 1 minute. • 5. After incubation, 10 μl of Substrate working stock is added to respective wells and mixed (Assay plate is maintained in dark after substrate addition). • 6. The plate is incubated at 22° C. for 60 mins and spun at 130 g for 1 minute. • 7. Fluorescence read (RFU) (Ex: 400 nm/Em: 505 nm) is taken after 60 mins in EnVision Multimode plate reader. Final Assay Concentration:
Data Analysis: • 1. The RFU read is analyzed to calculate percent inhibition by normalizing with positive and negative controls taken as 100% and 0% effect respectively in Microsoft excel. • 2. Graph is generated by putting the analyzed data in GraphPad prism 5.0 software to get IC50 value for each compound.
`CC[C@H](C)[C@H](NC(=O)COCCF)C(=O)N[C@H]1CCc2cccc3c2N(C1=O)[C@H](C(=O)NCc1ccco1)C3` [Compound C105, (2S,5S)-5-{(2S,3S)-2-[2-(2-Fluoro-ethoxy)-acetylamino]-3-methyl-pentanoylamino}-4-oxo-1,2,4,5,6,7-hexahydro-azepino[3,2,1-hi]indole-2-carboxylic acid (furan-2-ylmethyl)-amide]: the pIC50 (as a rule, the IC50 on a negative log10 scale, so that one unit is a factor of ten) is less than 5.30. `CC[C@H](C)[C@H](NC(=O)Cc1nc2ccccc2[nH]1)C(=O)N[C@H]1CCc2cccc3c2N(C1=O)[C@H](C(=O)NCc1c[nH]nn1)C3` [Compound C162, (2S,5S)-5-[(2S,3S)-2-(2-1H-Benzoimidazol-2-yl-acetylamino)-3-methyl-pentanoylamino]-4-oxo-1,2,4,5,6,7-hexahydro-azepino[3,2,1-hi]indole-2-carboxylic acid (1H-[1,2,3]triazol-4-ylmethyl)-amide]: the pIC50 was 6.52 to 9.00. With `CC(=O)N[C@H](C(=O)N[C@H]1COc2cccc3c2N(C1=O)[C@H](C(=O)NCc1c[nH]nn1)C3)C(C)C` [Compound C101, (1S,8S)-8-((S)-2-Acetylamino-3-methyl-butyrylamino)-9-oxo-1,2,8,9-tetrahydro-7H-6-oxa-9a-aza-benzo[cd]azulene-1-carboxylic acid (1H-[1,2,3]triazol-4-ylmethyl)-amide] the figure was 6.52 to 9.00. For the molecule `O=C(Cc1ccccc1)N[C@@H](Cc1ccc(O)cc1)C(=O)N[C@H]1CCc2cccc3c2N(C1=O)[C@H](C(=O)NCc1c[nH]nn1)C3` [Compound C021, (2S,5S)-5-[(S)-3-(4-Hydroxy-phenyl)-2-phenylacetylamino-propionylamino]-4-oxo-1,2,4,5,6,7-hexahydro-azepino[3,2,1-hi]indole-2-carboxylic acid (1H-[1,2,3]triazol-4-ylmethyl)-amide], the pIC50 was 5.30 to 6.00. To `CC[C@H](C)[C@H](NC(=O)COCCF)C(=O)N[C@H]1CCc2cccc3c2N(C1=O)[C@H](C(=O)NCc1ccc(Cl)cc1)C3` [Compound C132, (2S,5S)-5-{(2S,3S)-2-[2-(2-Fluoro-ethoxy)-acetylamino]-3-methyl-pentanoylamino}-4-oxo-1,2,4,5,6,7-hexahydro-azepino[3,2,1-hi]indole-2-carboxylic acid 4-chloro-benzylamide] belongs less than 5.30.

Regarding `O=C(N[C@@H](Cc1ccccc1)C(=O)N[C@H]1CCc2cccc3c2N(C1=O)[C@H](C(=O)NCc1c[nH]nn1)C3)c1ccccc1` [Compound C037], the pIC50 was 5.30 to 6.00.

In the case of `O=C(Cc1ccccc1)N[C@H](C(=O)N[C@H]1CCc2cccc3c2N(C1=O)[C@H](C(=O)NCc1c[nH]nn1)C3)c1ccccc1` [Compound C020, (2S,5S)-4-Oxo-5-((S)-2-phenyl-2-phenylacetylamino-acetylamino)-1,2,4,5,6,7-hexahydro-azepino[3,2,1-hi]indole-2-carboxylic acid (1H-[1,2,3]triazol-4-ylmethyl)-amide], the pIC50 is less than 5.30. Take `O=C(N[C@@H](Cc1ccc(F)cc1)C(=O)N[C@H]1CCc2cccc3c2N(C1=O)[C@H](C(=O)NCc1c[nH]nn1)C3)c1ccccc1` [Compound C043, (2S,5S)-5-[(S)-2-Benzoylamino-3-(4-fluoro-phenyl)-propionylamino]-4-oxo-1,2,4,5,6,7-hexahydro-azepino[3,2,1-hi]indole-2-carboxylic acid (1H-[1,2,3]triazol-4-ylmethyl)-amide]: the pIC50 is less than 5.30. With `CC[C@H](C)[C@H](NC(=O)COCCF)C(=O)N[C@H]1CCc2cccc3c2N(C1=O)[C@H](C(=O)NCc1ccncc1)C3` [Compound C123, (2S,5S)-5-{(2S,3S)-2-[2-(2-Fluoro-ethoxy)-acetylamino]-3-methyl-pentanoylamino}-4-oxo-1,2,4,5,6,7-hexahydro-azepino[3,2,1-hi]indole-2-carboxylic acid (pyridin-4-ylmethyl)-amide], the pIC50 is less than 5.30. In the case of `CC(C)[C@H](NC(=O)c1ccncc1)C(=O)N[C@H]1CCc2cccc3c2N(C1=O)[C@H](C(=O)NCc1c[nH]nn1)C3` [Compound C071, (2S,5S)-5-{(S)-3-Methyl-2-[(pyridine-4-carbonyl)-amino]-butyrylamino}-4-oxo-1,2,4,5,6,7-hexahydro-azepino[3,2,1-hi]indole-2-carboxylic acid (1H-[1,2,3]triazol-4-ylmethyl)-amide], the pIC50 was 6.52 to 9.00. To `O=C(Cc1csc2ccccc12)N[C@@H](Cc1ccc(F)cc1)C(=O)N[C@H]1CCc2cccc3c2N(C1=O)[C@H](C(=O)NCc1c[nH]nn1)C3` [Compound C011, (2S,5S)-5-[(S)-2-(2-Benzo[b]thiophen-3-yl-acetylamino)-3-(4fluoro-phenyl)-propionylamino]-4-oxo-1,2,4,5,6,7-hexahydro-azepino[,3,2,1-hi]indole-2-carboxylic acid (1H-[1,2,3]triazol-4-ylmethyl)-amide] belongs less than 5.30; to `CC(C)(NC(=O)Cc1csc2ccccc12)C(=O)N[C@H]1CCc2cccc3c2N(C1=O)[C@H](C(=O)NCc1c[nH]nn1)C3` [Compound C044, (2S,5S)-5-[2-(2-Benzo[b]thiophen-3-yl-acetylamino)-2-methyl-propionylamino]-4-oxo-1,2,4,5,6,7-hexahydro-azepino[3,2,1-hi]indole-2-carboxylic acid (1H-[1,2,3]triazol-4-ylmethyl)-amide], less than 5.30; to `CC(=O)N[C@@H](Cc1ccc(F)cc1)C(=O)N[C@H]1CCc2cccc3c2N(C1=O)[C@H](C(=O)NCc1c[nH]nn1)C3` [Compound C033, (2S,5S)-5-[(S)-2-Acetylamino-3-(4-fluoro-phenyl)-propionylamino]-4-oxo-1,2,4,5,6,7-hexahydro-azepino[3,2,1-hi]indole-2-carboxylic acid (1H-[1,2,3]triazol-4-ylmethyl)-amide], 5.30 to 6.00.

In the case of `CC(=O)N[C@H](C(=O)N[C@H]1CCc2cccc3c2N(C1=O)[C@H](C(=O)NCc1c[nH]nn1)C3)C1CCC1` [Compound C083, (2S,5S)-5-((S)-2-Acetylamino-2-cyclobutyl-acetylamino)-4-oxo-1,2,4,5,6,7-hexahydro-azepino[3,2,1-hi]indole-2-carboxylic acid (1H-[1,2,3]triazol-4-ylmethyl)-amide], the pIC50 was 6.52 to 9.00. With `COc1ccccc1C(=O)N[C@H](C(=O)N[C@H]1CCc2cccc3c2N(C1=O)[C@H](C(=O)NCc1c[nH]nn1)C3)C(C)C` [Compound C063, (2S,5S)-5-[(S)-2-(2-Methoxy-benzoylamino)-3-methyl-butyrylamino]-4-oxo-1,2,4,5,6,7-hexahydro-azepino[3,2,1-hi]indole-2-carboxylic acid (1H-[1,2,3]triazol-4-ylmethyl)-amide] the figure was 6.52 to 9.00; with `CCC(CC)[C@H](NC(=O)Cc1csc2ccccc12)C(=O)N[C@H]1CCc2cccc3c2N(C1=O)[C@H](C(=O)NCc1c[nH]nn1)C3` [Compound C072, (2S,5S)-5-[(S)-2-(2-Benzo[b]thiophen-3-yl-acetylamino)-3-ethyl-pentanoylamino]-4-oxo-1,2,4,5,6,7-hexahydro-azepino[3,2,1-hi]indole-2-carboxylic acid (1H-[1,2,3]triazol-4-ylmethyl)-amide], 6.00 to 6.52.
